According to the NIST ThermoML archive (doi:10.1016/j.fluid.2007.07.066):
Numbers after ± are expanded uncertainties.

Test: mn = molality of the nth substance listed, in mol/kg
Details: 101 kPa, Liquid; for speed of sound: Sing-around technique in a fixed-path interferometer; for molar conductivity: dip type immersion conductance cell

O=P([O-])([O-])O.[Na+].[Na+] [disodium hydrogen phosphate] + O
Details | mass density [kg/m3] | molar conductivity [S·m2/mol] | speed of sound [m/s]
283.15 K, m1 = 0.007 | 1000.71 ± 0.21 | – | 1449.3 ± 0.8
283.15 K, m1 = 0.0104 | 1001.19 ± 0.21 | – | 1450 ± 0.8
283.15 K, m1 = 0.0141 | 1001.72 ± 0.21 | – | 1450.8 ± 0.81
283.15 K, m1 = 0.032 | 1004.23 ± 0.21 | – | 1454.2 ± 0.81
283.15 K, m1 = 0.0386 | 1005.14 ± 0.21 | – | 1455.5 ± 0.81
283.15 K, m1 = 0.0411 | 1005.5 ± 0.21 | – | 1456 ± 0.81
283.15 K, m1 = 0.0496 | 1006.7 ± 0.21 | – | 1457.7 ± 0.81
283.15 K, m1 = 0.0632 | 1008.57 ± 0.21 | – | 1460.3 ± 0.81
283.15 K, m1 = 0.0737 | 1010.03 ± 0.22 | – | 1462.3 ± 0.81
283.15 K, m1 = 0.1066 | 1014.53 ± 0.22 | – | 1468.4 ± 0.81
283.15 K, m1 = 0.181 | 1024.58 ± 0.23 | – | 1481.8 ± 0.82
283.15 K, m1 = 0.2454 | 1033.1 ± 0.24 | – | 1493.2 ± 0.82
283.15 K, m1 = 0.2498 | 1033.68 ± 0.24 | – | 1493.8 ± 0.82
283.15 K, m1 = 0.2939 | 1039.48 ± 0.25 | – | 1501.6 ± 0.82
283.15 K, m1 = 0.3192 | 1042.77 ± 0.25 | – | 1506 ± 0.83
283.15 K, m1 = 0.3723 | 1049.55 ± 0.26 | – | 1514.9 ± 0.83
283.15 K, m1 = 0.4483 | 1059.19 ± 0.28 | – | 1527.7 ± 0.84
283.15 K, m1 = 0.6185 | 1080.36 ± 0.31 | – | 1555.7 ± 0.84
283.15 K, m1 = 0.7841 | 1100.26 ± 0.34 | – | 1582.3 ± 0.85
288.15 K, m1 = 0.007 | 1000.1 ± 0.2 | – | 1467.6 ± 0.81
288.15 K, m1 = 0.0104 | 1000.57 ± 0.21 | – | 1468.3 ± 0.81
288.15 K, m1 = 0.0141 | 1001.09 ± 0.19 | – | 1469 ± 0.81
288.15 K, m1 = 0.032 | 1003.56 ± 0.21 | – | 1472.3 ± 0.81
288.15 K, m1 = 0.0386 | 1004.46 ± 0.21 | – | 1473.6 ± 0.81
288.15 K, m1 = 0.0411 | 1004.81 ± 0.21 | – | 1474.1 ± 0.81
288.15 K, m1 = 0.0496 | 1006 ± 0.21 | – | 1475.7 ± 0.81
288.15 K, m1 = 0.0632 | 1007.85 ± 0.21 | – | 1478.2 ± 0.81
288.15 K, m1 = 0.0737 | 1009.28 ± 0.21 | – | 1480.1 ± 0.82
288.15 K, m1 = 0.1066 | 1013.73 ± 0.22 | – | 1486 ± 0.82
288.15 K, m1 = 0.181 | 1023.64 ± 0.23 | – | 1499.1 ± 0.82
288.15 K, m1 = 0.2454 | 1032.07 ± 0.25 | – | 1510.1 ± 0.83
288.15 K, m1 = 0.2498 | 1032.64 ± 0.23 | – | 1510.8 ± 0.83
288.15 K, m1 = 0.2939 | 1038.38 ± 0.25 | – | 1518.3 ± 0.83
288.15 K, m1 = 0.3192 | 1041.64 ± 0.25 | – | 1522.6 ± 0.83
288.15 K, m1 = 0.3723 | 1048.34 ± 0.26 | – | 1531.2 ± 0.84
288.15 K, m1 = 0.4483 | 1057.89 ± 0.27 | – | 1543.6 ± 0.84
288.15 K, m1 = 0.6185 | 1078.87 ± 0.3 | – | 1570.8 ± 0.85
288.15 K, m1 = 0.7841 | 1098.62 ± 0.33 | – | 1596.7 ± 0.86
293.15 K, m1 = 0.007 | 999.185 ± 0.2 | – | 1483.8 ± 0.82
293.15 K, m1 = 0.0104 | 999.653 ± 0.2 | – | 1484.5 ± 0.82
293.15 K, m1 = 0.0141 | 1000.17 ± 0.19 | – | 1485.2 ± 0.82
293.15 K, m1 = 0.032 | 1002.61 ± 0.2 | – | 1488.4 ± 0.82
293.15 K, m1 = 0.0386 | 1003.49 ± 0.2 | – | 1489.6 ± 0.82
293.15 K, m1 = 0.0411 | 1003.85 ± 0.21 | – | 1490.1 ± 0.82
293.15 K, m1 = 0.0496 | 1005.01 ± 0.21 | – | 1491.7 ± 0.82
293.15 K, m1 = 0.0632 | 1006.84 ± 0.21 | – | 1494.1 ± 0.82
293.15 K, m1 = 0.0737 | 1008.26 ± 0.21 | – | 1495.9 ± 0.82
293.15 K, m1 = 0.1066 | 1012.65 ± 0.22 | – | 1501.7 ± 0.82
293.15 K, m1 = 0.181 | 1022.47 ± 0.23 | – | 1514.3 ± 0.83
293.15 K, m1 = 0.2454 | 1030.81 ± 0.25 | – | 1525 ± 0.83
293.15 K, m1 = 0.2498 | 1031.37 ± 0.23 | – | 1525.7 ± 0.83
293.15 K, m1 = 0.2939 | 1037.06 ± 0.25 | – | 1533 ± 0.84
293.15 K, m1 = 0.3192 | 1040.28 ± 0.25 | – | 1537.1 ± 0.84
293.15 K, m1 = 0.3723 | 1046.93 ± 0.26 | – | 1545.5 ± 0.84
293.15 K, m1 = 0.4483 | 1056.39 ± 0.27 | – | 1557.6 ± 0.85
293.15 K, m1 = 0.6185 | 1077.21 ± 0.3 | – | 1584 ± 0.85
293.15 K, m1 = 0.7841 | 1096.81 ± 0.33 | – | 1609.1 ± 0.86
298.15 K, m1 = 0.0049 | – | 0.01921 ± 0.00019 | –
298.15 K, m1 = 0.007 | 998.012 ± 0.2 | – | 1498 ± 0.82
298.15 K, m1 = 0.0104 | 998.476 ± 0.21 | 0.01802 ± 0.00018 | 1498.7 ± 0.82
298.15 K, m1 = 0.0141 | 998.988 ± 0.19 | – | 1499.3 ± 0.82
298.15 K, m1 = 0.0154 | – | 0.01735 ± 0.00017 | –
298.15 K, m1 = 0.0211 | – | 0.0167 ± 0.00017 | –
298.15 K, m1 = 0.032 | 1001.4 ± 0.2 | – | 1502.5 ± 0.82
298.15 K, m1 = 0.0386 | 1002.28 ± 0.2 | – | 1503.7 ± 0.82
298.15 K, m1 = 0.0411 | 1002.63 ± 0.21 | – | 1504.1 ± 0.82
298.15 K, m1 = 0.0413 | – | 0.01534 ± 0.00015 | –
298.15 K, m1 = 0.0496 | 1003.78 ± 0.21 | – | 1505.6 ± 0.82
298.15 K, m1 = 0.0632 | 1005.6 ± 0.21 | – | 1508 ± 0.83
298.15 K, m1 = 0.0712 | – | 0.014 ± 0.00014 | –
298.15 K, m1 = 0.0737 | 1007 ± 0.21 | – | 1509.8 ± 0.83
298.15 K, m1 = 0.1066 | 1011.35 ± 0.21 | 0.01306 ± 0.00013 | 1515.3 ± 0.83
298.15 K, m1 = 0.1437 | – | 0.01234 ± 0.00012 | –
298.15 K, m1 = 0.181 | 1021.07 ± 0.23 | – | 1527.7 ± 0.83
298.15 K, m1 = 0.1927 | – | 0.0116 ± 0.00012 | –
298.15 K, m1 = 0.2454 | 1029.34 ± 0.24 | – | 1538 ± 0.84
298.15 K, m1 = 0.2475 | – | 0.011 ± 0.00011 | –
298.15 K, m1 = 0.2498 | 1029.9 ± 0.23 | – | 1538.6 ± 0.84
298.15 K, m1 = 0.2939 | 1035.53 ± 0.24 | – | 1545.8 ± 0.84
298.15 K, m1 = 0.3192 | 1038.73 ± 0.25 | – | 1549.8 ± 0.84
298.15 K, m1 = 0.3697 | – | 0.00986 ± 9.9e-05 | –
298.15 K, m1 = 0.3723 | 1045.32 ± 0.26 | – | 1558 ± 0.84
298.15 K, m1 = 0.4438 | – | 0.009224 ± 9.2e-05 | –
298.15 K, m1 = 0.4483 | 1054.71 ± 0.27 | – | 1569.7 ± 0.85
298.15 K, m1 = 0.5295 | – | 0.008621 ± 8.6e-05 | –
298.15 K, m1 = 0.6125 | – | 0.00816 ± 8.2e-05 | –
298.15 K, m1 = 0.6185 | 1075.38 ± 0.3 | – | 1595.4 ± 0.86
298.15 K, m1 = 0.6768 | – | 0.00778 ± 7.8e-05 | –
298.15 K, m1 = 0.7479 | – | 0.007445 ± 7.4e-05 | –
298.15 K, m1 = 0.7841 | 1094.86 ± 0.33 | – | 1619.8 ± 0.86
298.15 K, m1 = 0.8346 | – | 0.00706 ± 7.1e-05 | –
298.15 K, m1 = 0.9695 | – | 0.006536 ± 6.5e-05 | –
303.15 K, m1 = 0.007 | 996.606 ± 0.21 | – | 1510.4 ± 0.83
303.15 K, m1 = 0.0104 | 997.065 ± 0.21 | – | 1511 ± 0.83
303.15 K, m1 = 0.0141 | 997.573 ± 0.21 | – | 1511.7 ± 0.83
303.15 K, m1 = 0.032 | 999.963 ± 0.2 | – | 1514.7 ± 0.83
303.15 K, m1 = 0.0386 | 1000.84 ± 0.2 | – | 1515.9 ± 0.83
303.15 K, m1 = 0.0411 | 1001.18 ± 0.2 | – | 1516.3 ± 0.83
303.15 K, m1 = 0.0496 | 1002.33 ± 0.2 | – | 1517.8 ± 0.83
303.15 K, m1 = 0.0632 | 1004.12 ± 0.2 | – | 1520.1 ± 0.83
303.15 K, m1 = 0.0737 | 1005.51 ± 0.21 | – | 1521.8 ± 0.83
303.15 K, m1 = 0.1066 | 1009.83 ± 0.21 | – | 1527.2 ± 0.83
303.15 K, m1 = 0.181 | 1019.47 ± 0.22 | – | 1539.2 ± 0.84
303.15 K, m1 = 0.2454 | 1027.67 ± 0.23 | – | 1549.2 ± 0.84
303.15 K, m1 = 0.2498 | 1028.22 ± 0.23 | – | 1549.9 ± 0.84
303.15 K, m1 = 0.2939 | 1033.82 ± 0.24 | – | 1556.8 ± 0.84
303.15 K, m1 = 0.3192 | 1036.99 ± 0.24 | – | 1560.7 ± 0.84
303.15 K, m1 = 0.3723 | 1043.54 ± 0.25 | – | 1568.7 ± 0.85
303.15 K, m1 = 0.4483 | 1052.87 ± 0.27 | – | 1580.1 ± 0.85
303.15 K, m1 = 0.6185 | 1073.41 ± 0.29 | – | 1605.1 ± 0.86
303.15 K, m1 = 0.7841 | 1092.78 ± 0.32 | – | 1628.8 ± 0.87
